Columns and labels:
[1] = system: wild-type HCT-116 cells; assay: Cell proliferation (MTS), wild-type HCT-116; assay type: cell-based; conditions: Homo sapiens, 240 h; wild-type HCT-116, 10 days with compound, MTS reading; read-out: IC50 HCT116 WT
Summary of the method: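 Wild-type HCT-116 cells were seeded at 100 cells/well in McCoy's 5A/10% FBS. From day 1 they were treated with compound in 3-fold dilutions (initial 20 µM, 8 points) for 10 days at 37° C. Proliferation was read by MTS on day 11, and IC50 was obtained from a four-parameter logistic fit.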

[2] = system: MTAP^-/- HCT-116 cells; assay: Cell proliferation (MTS), MTAP-/- HCT-116; assay type: cell-based, human; conditions: for Selectivity: HCT116 WT IC50 relative to HCT116 MTAP-/- IC50; for IC50: Homo sapiens, 240 h, MTAP-/- HCT-116, 10 days with compound, MTS reading, read-out: IC50 HCT116 MTAP-/-
Summary of the method: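 MTAP-/- (CRISPR/Cas9 biallelic knockout) or wild-type HCT-116 cells seeded at 100 cells/well, treated next day with 8-point 3-fold dilutions (top 20 µM) for 10 days at 37 °C, 5% CO2. Viability read by MTS; IC50 from four-parameter logistic fit of inhibition rate vs log concentration.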

| Compound | IC50 [1] [nM] | Selectivity [2] | IC50 [2] [nM] |
| --- | --- | --- | --- |
| CN(C(=O)c1cc2c(cc1F)nc(N)c1cnn(C)c12)[C@@H]1COc2cc(C#Cc3cccnc3)ccc21 [Compound 48A, (S)-4-amino-7-fluoro-N,1-dimethyl-N-(6-(pyridin-3-ylethynyl)-2,3-dihydrobenzof uran-3-yl)-1H-pyrazolo[4,3-c]quinoline-8-carboxamide] | 141 | 71 | 2 |
| Cc1nn(C)cc1C#Cc1ccc2c(c1)OC[C@H]2N(C)C(=O)c1ccc2nc(N)c3cnn(C)c3c2c1 [Compound 49A, (S)-4-amino-N-(6-((1,3-dimethyl-1H-pyrazol-4-yl)ethynyl)-2,3-dihydrobenzofuran-3-yl)-N,1-dimethyl-1H-pyrazolo[4,3-c]quinoline-8-carboxamide] | 378 | 210 | 1.8 |
| CN(C(=O)c1cc2c(cc1Cl)nc(N)c1cnn(C)c12)[C@@H]1COc2cc(C#Cc3ccnn3C)ccc21 [Compound 53A, (S)-4-amino-7-chloro-N,1-dimethyl-N-(6-((1-methyl-1H-pyrazol-5-yl)ethynyl)-2,3-dihydrobenzofuran-3-yl)-1H-pyrazolo[4,3-c]quinoline-8-carboxamide] | 45 | 45 | 1 |
| Cc1ccc(C#Cc2ccc3c(c2)OC[C@H]3N(C)C(=O)c2cc3c(cc2Cl)nc(N)c2cnn(C)c23)cn1 [Compound 55A, (S)-4-amino-7-chloro-N,1-dimethyl-N-(6-((6-methylpyridin-3-yl)ethynyl)-2,3-dihydrobenzofuran-3-yl)-1H-pyrazolo[4,3-c]quinoline-8-carboxamide] | 217 | 43 | 5 |
| CN(C(=O)c1cc2c(cc1Cl)nc(N)c1cnn(C)c12)[C@@H]1COc2cc(C#Cc3cccnc3F)ccc21 [Compound 56A, (S)-4-amino-7-chloro-N-(6-((2-fluoropyridin-3-yl)ethynyl)-2,3-dihydrobenzofuran-3-yl)-N,1-dimethyl-1H-pyrazolo[4,3-c]quinoline-8-carboxamide] | 160 | 53 | 3 |
| Cc1ccc(C#Cc2ccc3c(c2)OC[C@H]3N(C)C(=O)c2cc3c4c(c(N)nc3cc2Cl)COC4)cn1 [Compound 58A, (S)-4-amino-7-chloro-N-methyl-N-(6-((6-methylpyridin-3-yl)ethynyl)-2,3-dihydrobenzofuran-3-yl)-1,3-dihydrofuro[3,4-c]quinoline-8-carboxamide] | 2220 | 234 | 9.5 |
| Cc1ccc(C#Cc2ccc3c(c2)OC[C@H]3N(C)C(=O)c2cc3c(cc2F)nc(N)c2cnn(C)c23)cn1 [Compound 59A, (S)-4-amino-7-fluoro-N,1-dimethyl-N-(6-((6-methylpyridin-3-yl)ethynyl)-2,3-dihydrobenzofuran-3-yl)-1H-pyrazolo[4,3-c]quinoline-8-carboxamide] | 305 | 66 | 4.6 |
| CN(C(=O)c1cc2c(cc1F)nc(N)c1cnn(C)c12)[C@@H]1COc2cc(C#Cc3ccc4cnn(C)c4c3)ccc21 [Compound 60A, (5)-4-amino-7-fluoro-N,1-dimethyl-N-(6-((1-methyl-1H-indazol-6-yl)ethynyl)-2,3-dihydrobenzofuran-3-yl)-1H-pyrazolo[4,3-c]quinoline-8-carboxamide] | 486 | 61 | 8 |
| CN(C(=O)c1cc2c3c(c(N)nc2cc1Cl)COC3)[C@@H]1COc2cc(C#Cc3ccc4cnn(C)c4c3)ccc21 [Compound 62A, (S)-4-amino-7-chloro-N-methyl-N-(6-((1-methyl-1H-indazol-6-yl)ethynyl)-2,3-dihydrobenzofuran-3-yl)-1,3-dihydrofuro[3,4-c]quinoline-8-carboxamide] | 1260 | 79 | 15.9 |
| Cc1ccncc1C#Cc1ccc2c(c1)OC[C@H]2N(C)C(=O)c1cc2c(cc1Cl)nc(N)c1cnn(C)c12 [Compound 63A, (S)-4-amino-7-chloro-N,1-dimethyl-N-(6-((4-methylpyridin-3-yl)ethynyl)-2,3-dihydrobenzofuran-3-yl)-1H-pyrazolo[4,3-c]quinoline-8-carboxamide] | 85 | 43 | 2 |
| Cc1cncc(C#Cc2ccc3c(c2)OC[C@H]3N(C)C(=O)c2cc3c(cc2Cl)nc(N)c2cnn(C)c23)c1 [Compound 65A, (S)-4-amino-7-chloro-N,1-dimethyl-N-(6-((5-methylpyridin-3-yl)ethynyl)-2,3-dihydrobenzofuran-3-yl)-1H-pyrazolo[4,3-c]quinoline-8-carboxamide] | 141 | 71 | 2 |
| CN(C(=O)c1cc2c(cc1Cl)nc(N)c1cnn(C)c12)[C@@H]1COc2cc(C#Cc3cnn(C(F)F)c3)ccc21 [Compound 67A, (S)-4-amino-7-chloro-N-(6-((1-(difluoromethyl)-1H-pyrazol-4-yl)ethynyl)-2,3-dihydrobenzofuran-3-yl)-N,1-dimethyl-1H-pyrazolo[4,3-c]quinoline-8-carboxamide] | 85 | 43 | 2 |
| CN(C(=O)c1cc2c3c(c(N)nc2cc1Cl)COC3)[C@@H]1COc2cc(C#Cc3cn(C)nc3Cl)ccc21 [Compound 68A, (S)-4-amino-7-chloro-N-(6-((3-chloro-1-methyl-1H-pyrazol-4-yl)ethynyl)-2,3-dihydrobenzofuran-3-yl)-N-methyl-1,3-dihydrofuro[3,4-c]quinoline-8-carboxamide] | 312 | 47 | 6.6 |
| CCn1cc(C#Cc2ccc3c(c2)OC[C@H]3N(C)C(=O)c2cc3c4c(c(N)nc3cc2Cl)COC4)cn1 [Compound 69A, (S)-4-amino-7-chloro-N-(6-((1-ethyl-1H-pyrazol-4-yl)ethynyl)-2,3-dihydrobenzof uran-3-yl)-N-methyl-1,3-dihydrofuro[3,4-c]quinoline-8-carboxamide] | 864 | 173 | 5 |
| CN(C(=O)c1cc2c3c(c(N)nc2cc1Cl)COC3)[C@@H]1COc2cc(C#Cc3cccnc3)ccc21 [Compound 70A, (S)-4-amino-7-chloro-N-methyl-N-(6-(pyridin-3-ylethynyl)-2,3-dihydrobenzofuran-3-yl)-1,3-dihydrofuro[3,4-c]quinoline-8-carboxamide] | 475 | 132 | 3.6 |
| Cc1c(C#Cc2ccc3c(c2)OC[C@H]3N(C)C(=O)c2cc3c4c(c(N)nc3cc2Cl)COC4)cnn1C1CC1 [Compound 71A, (S)-4-amino-7-chloro-N-(6-((1-cyclopropyl-5-methyl-1H-pyrazol-4-yl)ethynyl)-2,3-dihydrobenzofuran-3-yl)-N-methyl-1,3-dihydrofuro[3,4-c]quinoline-8-carboxamide] | 674 | 48 | 14 |
| CN(C(=O)c1cc2c3c(c(N)nc2cc1Cl)COC3)[C@@H]1COc2cc(C#Cc3cnc4cnn(C)c4c3)ccc21 [Compound 76A, (S)-4-amino-7-chloro-N-methyl-N-(6-((1-methyl-1H-pyrazolo[4,3-b]pyridin-6-yl)ethynyl)-2,3-dihydrobenzofuran-3-yl)-1,3-dihydrofuro[3,4-c]quinoline-8-carboxamide] | 167 | 56 | 3 |
| CN(C(=O)c1cc2c3c(c(N)nc2cc1Cl)COC3)[C@@H]1COc2cc(C#Cc3ccnn3C)ccc21 [Compound 78A, (S)-4-amino-7-chloro-N-methyl-N-(6-((1-methyl-1H-pyrazol-5-yl)ethynyl)-2,3-dihydrobenzofuran-3-yl)-1,3-dihydrofuro[3,4-c]quinoline-8-carboxamide] | 512 | 131 | 3.9 |
| [2H]C([2H])([2H])N(C(=O)c1cc2c(cc1F)nc(N)c1cnn(C)c12)[C@@H]1COc2cc(C#Cc3cnn(C)c3)ccc21 [Compound 79A, (S)-4-amino-7-fluoro-1-methyl-N-(methyl-D3)-N-(6-((1-methyl-1H-pyrazol-4-yl)ethynyl)-2,3-dihydrobenzofuran-3-yl)-1H-pyrazolo[4,3-c]quinoline-8-carboxamide] | 304 | 152 | 2 |
| CN(C(=O)c1cc2c3c(c(N)nc2cc1F)COC3)[C@@H]1COc2cc(C#Cc3cnc4n3CCCC4)ccc21 [Compound 80A, (S)-4-amino-7-fluoro-N-methyl-N-(6-((5,6,7,8-tetrahydroimidazo[1,2-a]pyridin-3-yl)ethynyl)-2,3-dihydrobenzofuran-3-yl)-1,3-dihydrofuro [3,4-c] quinoline-8-carbo xamide] | 1510 | 251 | 6 |
| Cc1cn(C)nc1C#Cc1ccc2c(c1)OC[C@H]2N(C)C(=O)c1cc2c(cc1Cl)nc(N)c1cnn(C)c12 [Compound 81A, (S)-4-amino-7-chloro-N-(6-((1,4-dimethyl-1H-pyrazol-3-yl)ethynyl)-2,3-dihydrobenzofuran-3-yl)-N,1-dimethyl-1H-pyrazolo[4,3-c]quinoline-8-carboxamide] | 122 | 45 | 2.7 |
| Cc1cc2nc(N)c3cnn(C)c3c2cc1C(=O)N(C)[C@@H]1COc2cc(C#Cc3cnn(C(F)F)c3)ccc21 [Compound 83A] | 62 | 62 | 1 |

From patent publication EP4755886A1 (Chengdu Chipscreen Pharmaceutical Ltd., priority 2023, dated 2025)
